Experimental data reported in patent US4442044A, “Process for preparing monoesters and diesters of N-alkyl substituted amino methyl phosphonic acid” (priority 1983, dated 1984).

What was measured:
Format in all cases: in vivo
Lambsquarters [1] = assay: post-emergent herbicidal activity, greenhouse; conditions: 4 WAT
In short: (§1)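 Post-emergence foliar spray at tabulated application rates, using aliquots of a 1.0% stock in acetone, THF or water plus ~0.4% emulsifier, applied to 2–3-week-old greenhouse plants. Plant injury was rated relative to controls roughly two and four weeks after treatment.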

Wild Buckwheat = assay: post-emergent herbicidal activity, greenhouse; conditions: Table II, 4 WAT
In short: as §1

Johnsongrass [2] = assay: post-emergent herbicidal activity, greenhouse; conditions: Table I, 4 WAT
In short: as §1

Cocklebur [3] = assay: post-emergent herbicidal activity, greenhouse; conditions: 4 WAT
In short: as §1

Wheat = assay: post-emergent herbicidal activity, greenhouse; conditions: Table II, 4 WAT
In short: as §1

Downy Brome [4] = assay: post-emergent herbicidal activity, greenhouse; conditions: 4 WAT
In short: as §1

Sugar Beet = assay: post-emergent herbicidal activity, greenhouse; conditions: Table II, 4 WAT
In short: as §1

Barnyardgrass [5] = assay: post-emergent herbicidal activity, greenhouse; conditions: 4 WAT
In short: as §1

Smartweed [6] = assay: post-emergent herbicidal activity, greenhouse; conditions: 4 WAT
In short: as §1

Velvetleaf [7] = assay: post-emergent herbicidal activity, greenhouse; conditions: 4 WAT
In short: as §1

Morningglory [8] = assay: post-emergent herbicidal activity, greenhouse; conditions: 4 WAT
In short: as §1

Quackgrass [9] = assay: post-emergent herbicidal activity, greenhouse; conditions: Table I, 4 WAT
In short: as §1

Yellow Nutsedge [10] = assay: post-emergent herbicidal activity, greenhouse; conditions: Table I, 4 WAT
In short: as §1

Soybean = assay: post-emergent herbicidal activity, greenhouse; conditions: Table II, 4 WAT
In short: as §1

Hemp Sesbania = assay: post-emergent herbicidal activity, greenhouse; conditions: Table II, 4 WAT
In short: as §1

Panicum Spp = assay: post-emergent herbicidal activity, greenhouse; conditions: Table II, 4 WAT
In short: as §1

Rice = assay: post-emergent herbicidal activity, greenhouse; conditions: Table II, 4 WAT
In short: as §1

Sorghum = assay: post-emergent herbicidal activity, greenhouse; conditions: Table II, 4 WAT
In short: as §1

Lambsquarters [11] = assay: pre-emergent herbicidal activity, soil incorporation; conditions: Table III, 2 WAT, 11.2 kg/h
Description: (§2) A good grade of top soil is placed in aluminum pans and compacted to a depth of 0.95 to 1.27 cm. from the top of each pan. A predetermined number of seeds or vegetative propagules of each of several plant species are placed on top of the soil in each pan and then pressed down. Herbicidal compositions prepared as in the previous example are applied by admixture with or incorporation in the top layer of soil.
(§3) In this method, the soil required to cover the seeds and propagules is weighed and admixed with a herbicidal composition containing a known amount of the active ingredient (compound of this invention). The pans are then filled with the admixture and leveled. Watering is carried out by permitting the soil in the pans to absorb moisture through apertures in the pan bottoms. The seed and propagule containing pans are placed on a wet sand bench and maintained for approximately two weeks under ordinary conditions of sunlight and watering. At the end of this period, the number of emerged plants of each species is noted and compared to an untreated control.
(§4) The pre-emergent herbicidal activity index used below is based upon average percent control of each species as follows: […]

Johnsongrass [12] = assay: as above; conditions: Table III, 2 WAT, 11.2 kg/h
Description: as §2, §3, §4

Cocklebur [13] = assay: as above; conditions: Table III, 2 WAT, 11.2 kg/h
Description: as §2, §3, §4

Downy Brome [14] = assay: as above; conditions: Table III, 2 WAT, 11.2 kg/h
Description: as §2, §3, §4

Barnyardgrass [15] = assay: as above; conditions: Table III, 2 WAT, 11.2 kg/h
Description: as §2, §3, §4

Smartweed [16] = assay: as above; conditions: Table III, 2 WAT, 11.2 kg/h
Description: as §2, §3, §4

Velvetleaf [17] = assay: as above; conditions: Table III, 2 WAT, 11.2 kg/h
Description: as §2, §3, §4

Morningglory [18] = assay: as above; conditions: Table III, 2 WAT, 11.2 kg/h
Description: as §2, §3, §4

Quackgrass [19] = assay: as above; conditions: Table III, 2 WAT, 11.2 kg/h
Description: as §2, §3, §4

Yellow Nutsedge [20] = assay: as above; conditions: Table III, 2 WAT, 11.2 kg/h
Description: as §2, §3, §4

CCOCCOC(=O)CNCP(=O)(O)OC(C)C#N (stereo not drawn) [Example 9, glycine, N-[[(1-cyanoethoxy)hydroxyphosphinyl]-methyl],2-ethoxyethyl ester]
post-emergent herbicidal activity index (Lambsquarters [1]; Table I, 5.6 kg/h): 4 (100% control) | post-emergent herbicidal activity index (Lambsquarters [1]; Table I, 11.2 kg/h): 4 (100% control) | post-emergent herbicidal activity index (Lambsquarters [1]; Table II, 0.28 kg/h): 4 (100% control) | post-emergent herbicidal activity index (Lambsquarters [1]; Table II, 1.12 kg/h): 4 (100% control) | post-emergent herbicidal activity index (Lambsquarters [1]; Table II, 5.6 kg/h): 4 (100% control) | post-emergent herbicidal activity index (Wild Buckwheat; 0.28 kg/h): 1 (25-49% control) | post-emergent herbicidal activity index (Wild Buckwheat; 1.12 kg/h): 0 (0-24% control) | post-emergent herbicidal activity index (Wild Buckwheat; 5.6 kg/h): 3 (75-99% control) | post-emergent herbicidal activity index (Johnsongrass [2]; 5.6 kg/h): 4 (100% control) | post-emergent herbicidal activity index (Johnsongrass [2]; 11.2 kg/h): 4 (100% control) | post-emergent herbicidal activity index (Cocklebur [3]; Table I, 5.6 kg/h): 3 (75-99% control) | post-emergent herbicidal activity index (Cocklebur [3]; Table I, 11.2 kg/h): 4 (100% control) | post-emergent herbicidal activity index (Cocklebur [3]; Table II, 0.28 kg/h): 1 (25-49% control) | post-emergent herbicidal activity index (Cocklebur [3]; Table II, 1.12 kg/h): 1 (25-49% control) | post-emergent herbicidal activity index (Cocklebur [3]; Table II, 5.6 kg/h): 4 (100% control) | post-emergent herbicidal activity index (Wheat; 0.28 kg/h): 2 (50-74% control) | post-emergent herbicidal activity index (Wheat; 1.12 kg/h): 3 (75-99% control) | post-emergent herbicidal activity index (Wheat; 5.6 kg/h): 3 (75-99% control) | post-emergent herbicidal activity index (Downy Brome [4]; Table I, 5.6 kg/h): 2 (50-74% control) | post-emergent herbicidal activity index (Downy Brome [4]; Table I, 11.2 kg/h): 3 (75-99% control) | post-emergent herbicidal activity index (Downy Brome [4]; Table II, 0.28 kg/h): 2 (50-74% control) | post-emergent herbicidal activity index (Downy Brome [4]; Table II, 1.12 kg/h): 1 (25-49% control) | post-emergent herbicidal activity index (Downy Brome [4]; Table II, 5.6 kg/h): 4 (100% control) | post-emergent herbicidal activity index (Sugar Beet; 0.28 kg/h): 3 (75-99% control) | post-emergent herbicidal activity index (Sugar Beet; 1.12 kg/h): 2 (50-74% control) | post-emergent herbicidal activity index (Sugar Beet; 5.6 kg/h): 4 (100% control) | post-emergent herbicidal activity index (Barnyardgrass [5]; Table I, 5.6 kg/h): 3 (75-99% control) | post-emergent herbicidal activity index (Barnyardgrass [5]; Table I, 11.2 kg/h): 3 (75-99% control) | post-emergent herbicidal activity index (Barnyardgrass [5]; Table II, 0.28 kg/h): 2 (50-74% control) | post-emergent herbicidal activity index (Barnyardgrass [5]; Table II, 1.12 kg/h): 3 (75-99% control) | post-emergent herbicidal activity index (Barnyardgrass [5]; Table II, 5.6 kg/h): 3 (75-99% control) | post-emergent herbicidal activity index (Smartweed [6]; Table I, 5.6 kg/h): 2 (50-74% control) | post-emergent herbicidal activity index (Smartweed [6]; Table I, 11.2 kg/h): 3 (75-99% control) | post-emergent herbicidal activity index (Smartweed [6]; Table II, 0.28 kg/h): 2 (50-74% control) | post-emergent herbicidal activity index (Smartweed [6]; Table II, 1.12 kg/h): 2 (50-74% control) | post-emergent herbicidal activity index (Smartweed [6]; Table II, 5.6 kg/h): 1 (25-49% control) | post-emergent herbicidal activity index (Velvetleaf [7]; Table I, 5.6 kg/h): 3 (75-99% control) | post-emergent herbicidal activity index (Velvetleaf [7]; Table I, 11.2 kg/h): 4 (100% control) | post-emergent herbicidal activity index (Velvetleaf [7]; Table II, 0.28 kg/h): 1 (25-49% control) | post-emergent herbicidal activity index (Velvetleaf [7]; Table II, 1.12 kg/h): 3 (75-99% control) | post-emergent herbicidal activity index (Velvetleaf [7]; Table II, 5.6 kg/h): 3 (75-99% control) | post-emergent herbicidal activity index (Morningglory [8]; Table I, 5.6 kg/h): 2 (50-74% control) | post-emergent herbicidal activity index (Morningglory [8]; Table I, 11.2 kg/h): 3 (75-99% control) | post-emergent herbicidal activity index (Morningglory [8]; Table II, 0.28 kg/h): 2 (50-74% control) | post-emergent herbicidal activity index (Morningglory [8]; Table II, 1.12 kg/h): 2 (50-74% control) | post-emergent herbicidal activity index (Morningglory [8]; Table II, 5.6 kg/h): 2 (50-74% control) | post-emergent herbicidal activity index (Quackgrass [9]; 5.6 kg/h): 4 (100% control) | post-emergent herbicidal activity index (Quackgrass [9]; 11.2 kg/h): 4 (100% control) | post-emergent herbicidal activity index (Yellow Nutsedge [10]; 5.6 kg/h): 1 (25-49% control) | post-emergent herbicidal activity index (Yellow Nutsedge [10]; 11.2 kg/h): 3 (75-99% control) | post-emergent herbicidal activity index (Soybean; 0.28 kg/h): 1 (25-49% control) | post-emergent herbicidal activity index (Soybean; 1.12 kg/h): 3 (75-99% control) | post-emergent herbicidal activity index (Soybean; 5.6 kg/h): 4 (100% control) | post-emergent herbicidal activity index (Hemp Sesbania; 0.28 kg/h): 1 (25-49% control) | post-emergent herbicidal activity index (Hemp Sesbania; 1.12 kg/h): 1 (25-49% control) | post-emergent herbicidal activity index (Hemp Sesbania; 5.6 kg/h): 1 (25-49% control) | post-emergent herbicidal activity index (Panicum Spp; 0.28 kg/h): 4 (100% control) | post-emergent herbicidal activity index (Panicum Spp; 1.12 kg/h): 4 (100% control) | post-emergent herbicidal activity index (Panicum Spp; 5.6 kg/h): 4 (100% control) | post-emergent herbicidal activity index (Rice; 0.28 kg/h): 1 (25-49% control) | post-emergent herbicidal activity index (Rice; 1.12 kg/h): 2 (50-74% control) | post-emergent herbicidal activity index (Rice; 5.6 kg/h): 3 (75-99% control) | post-emergent herbicidal activity index (Sorghum; 0.28 kg/h): 2 (50-74% control) | post-emergent herbicidal activity index (Sorghum; 1.12 kg/h): 1 (25-49% control) | post-emergent herbicidal activity index (Sorghum; 5.6 kg/h): 3 (75-99% control) | pre-emergent herbicidal activity index (Lambsquarters [11]): 0 (1-24% control) | pre-emergent herbicidal activity index (Johnsongrass [12]): 0 (1-24% control) | pre-emergent herbicidal activity index (Cocklebur [13]): 0 (1-24% control) | pre-emergent herbicidal activity index (Downy Brome [14]): 0 (1-24% control) | pre-emergent herbicidal activity index (Barnyardgrass [15]): 0 (1-24% control) | pre-emergent herbicidal activity index (Smartweed [16]): 0 (1-24% control) | pre-emergent herbicidal activity index (Velvetleaf [17]): 0 (1-24% control) | pre-emergent herbicidal activity index (Morningglory [18]): 0 (1-24% control) | pre-emergent herbicidal activity index (Quackgrass [19]): 0 (1-24% control) | pre-emergent herbicidal activity index (Yellow Nutsedge [20]): 1 (25-49% control)
